Measurements taken from US8629293B2, “Process for the preparation of FE(III) chelates of N,N′-DI(2-hydroxybenzyl)-ethylenediamine-N,N′-diacetic acid and its derivatives” (Przedsiebiorstwo Produkcyjno-Consultingowe Adob SP. Z O.O. …, priority 2009, dated 2014).

Legend:
[1] = system: 7-year old trees of flat peach (Prunus persica var. platycarpa) grafted on the GF677 root stock with visible symptoms of chlorosis; assay: Field test, testing field No. 2: SPAD index of leaves; assay type: in vivo; conditions: for ΔSPAD index of leaves: 0.9 g of the chelated Fe/tree
Description: (§1) The comparison included two chelate agents for supplementing iron deficiencies: HBED/Fe^3+ as well as the commercially available, highly purified EDDHA/Fe^3+. The studies were carried out on two fields with the soil having an alkaline pH as well as a high concentration of calcium ions. The chelates were applied directly to the soil by means of a dripper immersed in the soil.
7-year old trees of flat peach (Prunus persica var. platycarpa) grafted on the GF677 root stock with visible symptoms of chlorosis
The chelates were applied at the following concentrations: • EDDHA/Fe^3+: high concentration (0.9 g of the chelated Fe/tree) • HBED/Fe^3+: high concentration (0.9 g of the chelated Fe/tree) • control trial: without Fe
The chelate solutions were dosed directly to the ground below the dripper. In this case, the whole dose of the chelates were applied in one portion. The symptoms of chlorosis were visible at the beginning of the experiment.
The samples for determination of the SPAD index of leaves were taken approximately every two weeks (on day 0, 20, 40 and 63 after application of the chelates).

[2] = system: 10-year old nectarine trees, cultivar "Zephyr" grafted on the GF677 root stock; assay: Field test, testing field No. 1: SPAD index; assay type: in vivo
Description: as §1
10-year old nectarine trees, cultivar “Zephyr” grafted on the GF677 root stock
The chelates were applied at the following concentrations: • EDDHA/Fe^3+: high concentration (0.9 g of the chelated Fe/tree) • HBED/Fe^3+: low concentration (0.45 g of the chelated Fe/tree) • HBED/Fe^3+: high concentration (0.9 g of the chelated Fe/tree) • control trial: without Fe
The chelate solutions of various concentrations were applied in three portions (50%, 30%, and finally 20% of the whole dose, respectively) directly to the ground below the dripper.
The SPAD index was measured approximately every two weeks: on day 14, 29, 44, 61, 88 and 99 after application of the chelates.

[3] = 0.9 g of the chelated Fe/tree, day 14 after application
[4] = 0.9 g of the chelated Fe/tree, day 29 after application
[5] = 0.9 g of the chelated Fe/tree, day 44 after application
[6] = 0.9 g of the chelated Fe/tree, day 61 after application
[7] = 0.9 g of the chelated Fe/tree, day 88 after application
[8] = 0.9 g of the chelated Fe/tree, day 99 after application
[9] = 0.45 g of the chelated Fe/tree, day 14 after application
[10] = 0.45 g of the chelated Fe/tree, day 29 after application
[11] = 0.45 g of the chelated Fe/tree, day 44 after application
[12] = 0.45 g of the chelated Fe/tree, day 61 after application
[13] = 0.45 g of the chelated Fe/tree, day 88 after application
[14] = 0.45 g of the chelated Fe/tree, day 99 after application

## O=C([O-])C(NCCNC(C(=O)[O-])c1ccccc1[O-])c1ccccc1[O-].[Fe+3] (stereo not drawn) [EDDHA/Fe^3+, reference compound]
[1]; day 0 after application
  ΔSPAD index of leaves: 0
[1]; day 20 after application
  ΔSPAD index of leaves: 13.00
[1]; day 40 after application
  ΔSPAD index of leaves: 17.50
[1]; day 63 after application
  ΔSPAD index of leaves: 17.25
[2]; [3]
  The SPAD index of the fructifying branches: 36.00
  The SPAD index of the non-fructifying branches: 35.69
[2]; [4]
  The SPAD index of the fructifying branches: 37.00
  The SPAD index of the non-fructifying branches: 37.77
[2]; [5]
  The SPAD index of the fructifying branches: 37.82
  The SPAD index of the non-fructifying branches: 36.23
[2]; [6]
  The SPAD index of the fructifying branches: 37.82
  The SPAD index of the non-fructifying branches: 35.15
[2]; [7]
  The SPAD index of the fructifying branches: 39.09
  The SPAD index of the non-fructifying branches: 37.38
[2]; [8]
  The SPAD index of the fructifying branches: 38.91
  The SPAD index of the non-fructifying branches: 36.92

## O=C([O-])CN(CCN(CC(=O)[O-])Cc1ccccc1[O-])Cc1ccccc1[O-].[Fe+3].[Na+] [HBED/Fe^3+]
[1]; day 0 after application
  ΔSPAD index of leaves: 0
[1]; day 20 after application
  ΔSPAD index of leaves: 11.50
[1]; day 40 after application
  ΔSPAD index of leaves: 16.75
[1]; day 63 after application
  ΔSPAD index of leaves: 16.23
[1]; Table 5
  ΔSPAD index compared with EDDHA/Fe3+: does not show any significant differences
[1]; soils of alkaline pH and high concentration of calcium ions
  Use against iron deficiencies: may be successfully used against iron deficiencies
[2]; [9]
  The SPAD index of the fructifying branches: 36.46
  The SPAD index of the non-fructifying branches: 34.39
[2]; [10]
  The SPAD index of the fructifying branches: 37.82
  The SPAD index of the non-fructifying branches: 36.46
[2]; [11]
  The SPAD index of the fructifying branches: 37.09
  The SPAD index of the non-fructifying branches: 34.46
[2]; [12]
  The SPAD index of the fructifying branches: 36.54
  The SPAD index of the non-fructifying branches: 34.69
[2]; [13]
  The SPAD index of the fructifying branches: 38.64
  The SPAD index of the non-fructifying branches: 37.46
[2]; [14]
  The SPAD index of the fructifying branches: 37.36
  The SPAD index of the non-fructifying branches: 36.54
[2]; [3]
  The SPAD index of the fructifying branches: 35.45
  The SPAD index of the non-fructifying branches: 35.69
[2]; [4]
  The SPAD index of the fructifying branches: 37.91
  The SPAD index of the non-fructifying branches: 35.77
[2]; [5]
  The SPAD index of the fructifying branches: 37.27
  The SPAD index of the non-fructifying branches: 36.54
[2]; [6]
  The SPAD index of the fructifying branches: 37.64
  The SPAD index of the non-fructifying branches: 33.69
[2]; [7]
  The SPAD index of the fructifying branches: 39.73
  The SPAD index of the non-fructifying branches: 39.00
[2]; [8]
  The SPAD index of the fructifying branches: 37.27
  The SPAD index of the non-fructifying branches: 37.46
[2]; fructifying and non-fructifying branches, Tables 3 and 4
  SPAD index values compared with EDDHA/Fe3+: comparable
[2]; testing field No. 1
  Effect on symptoms of chlorosis: effectively reduces the symptoms of chlorosis
